From PubChem BioAssay AID214 (DTP/NCI, 2004)
Several values for one entry are separate records, joined by “and”; a condition that tells them apart may be missing. Equal entries are not always repeated. Records with an inconclusive call do not appear.

System: B6C3F1 mice, colon carcinoma 38 s.c., T/C
Assay: NCI In Vivo Anticancer Drug Screen. Data for tumor model Colon Carcinoma 38 (subcutaneous) in B6C3F1 mice
Conditions: endpoint: median tumor weight (est.), higher = larger tumour
Method: The antitumor activity of compounds was measured in mice bearing transplantable tumors. Survival or tumor size were measured and the results are expressed as the measurement made in the treated group (T) divided by the measurement made in the vehicle treated control group (C). The tumor model used in this assay is Colon Carcinoma 38 (subcutaneous) in B6C3F1 mice

[1] = dose: 50.0 mg/kg/injection, schedule: Q07DX002 (ip), vehicle: saline
[2] = dose: 100.0 mg/kg/injection, schedule: Q07DX002 (ip), vehicle: saline
[3] = dose: 200.0 mg/kg/injection, schedule: Q07DX002 (ip), vehicle: saline
[4] = dose: 400.0 mg/kg/injection, schedule: Q07DX002 (ip), vehicle: saline
[5] = dose: 50.0 mg/kg/injection, schedule: Q07DX002 (ip), vehicle: Klucel (hydroxypropylcellulose) (HPC)
[6] = dose: 100.0 mg/kg/injection, schedule: Q07DX002 (ip), vehicle: Klucel (hydroxypropylcellulose) (HPC)
[7] = dose: 200.0 mg/kg/injection, schedule: Q07DX002 (ip), vehicle: Klucel (hydroxypropylcellulose) (HPC)
[8] = dose: 400.0 mg/kg/injection, schedule: Q07DX002 (ip), vehicle: Klucel (hydroxypropylcellulose) (HPC)
[9] = dose: 50.0 mg/kg/injection, schedule: Q07DX002 (ip), vehicle: saline with Tween-80
[10] = dose: 100.0 mg/kg/injection, schedule: Q07DX002 (ip), vehicle: saline with Tween-80
[11] = dose: 200.0 mg/kg/injection, schedule: Q07DX002 (ip), vehicle: saline with Tween-80
[12] = dose: 25.0 mg/kg/injection, schedule: Q07DX002 (ip), vehicle: saline
[13] = dose: 4.0 mg/kg/injection, schedule: Q07DX002 (ip), vehicle: saline

CCn1cnc2c(=S)nc[nH]c21
T/C [1]: 85 % of control
T/C (dose: 50.0 mg/kg/injection, schedule: Q07DX002 (ip), vehicle: suspension in saline): 92 % of control
T/C [2]: 73 % of control
T/C (dose: 100.0 mg/kg/injection, schedule: Q07DX002 (ip), vehicle: suspension in saline): 58 % of control
T/C [3]: 55 % of control
T/C (dose: 200.0 mg/kg/injection, schedule: Q07DX002 (ip), vehicle: suspension in saline): 16 % of control
T/C [4]: 1 % of control

Oc1c(Cl)cc(Cl)cc1C=NCCSc1ccc(Cl)cc1
T/C [5]: 118 % of control
T/C [6]: 81 % of control
T/C [7]: 109 % of control
T/C [8]: 63 % of control

ClCc1ccc2ccccc2n1
T/C [9]: 93 % of control
T/C [10]: 86 % of control
T/C [11]: 89 % of control

Oc1ccc(CCl)c2cccnc12
T/C [12]: 91 % of control
T/C [1]: 105 % of control
T/C [2]: 94 % of control
T/C [3]: 106 % of control

CC(=O)C(=O)O.CC(=O)C(=O)O.[NH-]C1CCCCC1[NH-].[Pt+2] (stereo not drawn)
T/C (dose: 6.25 mg/kg/injection, schedule: Q07DX002 (ip), vehicle: dextrose): 83 % of control
T/C (dose: 12.5 mg/kg/injection, schedule: Q07DX002 (ip), vehicle: dextrose): 31 % of control
T/C (dose: 25.0 mg/kg/injection, schedule: Q07DX002 (ip), vehicle: dextrose): 31 % of control
T/C (dose: 50.0 mg/kg/injection, schedule: Q07DX002 (ip), vehicle: dextrose): 16 % of control

[Cl][Hg][Cl]
T/C (dose: 1.56 mg/kg/injection, schedule: Q07DX002 (ip), vehicle: saline): 80 % of control
T/C (dose: 3.12 mg/kg/injection, schedule: Q07DX002 (ip), vehicle: saline): 124 % of control

NC(CCl)=NCC12CC3CC(CC(C3)C1)C2
T/C (dose: 12.5 mg/kg/injection, schedule: Q07DX002 (ip), vehicle: Klucel (hydroxypropylcellulose) (HPC)): 110 % of control
T/C [6]: 94 % of control and 108 % of control

OCCO
T/C (dose: 1.0 % in 0.5 ml injection vol, schedule: Q07DX002 (ip), vehicle: water): 181 % of control
T/C (dose: 2.0 % in 0.5 ml injection vol, schedule: Q07DX002 (ip), vehicle: water): 160 % of control

CO[C@@]12[C@H](COC(N)=O)C3=C(C(=O)C(C)=C(N)C3=O)N1C[C@@H]1N[C@@H]12
T/C (dose: 0.5 mg/kg/injection, schedule: Q07DX002 (ip), vehicle: saline): 77 % of control
T/C [13]: 18 % of control and 19 % of control

O=C1N[C@H]2[C@H](O)[C@H](O)[C@@H](O)[C@H](O)[C@@H]2c2cc3c(c(O)c21)OCO3
T/C (dose: 0.88 mg/kg/injection, schedule: Q01DX008 (ip), vehicle: saline + alcohol): 113 % of control
T/C (dose: 1.75 mg/kg/injection, schedule: Q01DX008 (ip), vehicle: saline + alcohol): 105 % of control
T/C (dose: 3.5 mg/kg/injection, schedule: Q01DX008 (ip), vehicle: saline + alcohol): 88 % of control

COC1C(CO)OC(n2cnc3c(=S)nc(N)[nH]c32)C1O (stereo not drawn)
T/C [6]: 110 % of control
T/C [7]: 46 % of control
T/C [8]: 51 % of control
T/C (dose: 800.0 mg/kg/injection, schedule: Q07DX002 (ip), vehicle: Klucel (hydroxypropylcellulose) (HPC)): 13 % of control

CCCCCCCCCCCCCCCCCCOCC(COP(=O)([O-])OCC[N+](C)(C)C)OC (stereo not drawn)
T/C (dose: 12.5 mg/kg/injection, schedule: Q07DX002 (ip), vehicle: saline): 122 % of control
T/C [12]: 119 % of control
T/C [1]: 89 % of control
T/C [2]: 73 % of control

CC[C@@H](C)[C@@H]1NC(=O)C(NC(=O)C(CC(C)C)N(C)C(=O)C2CCCN2C(=O)C(C)O)C(C)OC(=O)C(Cc2ccc(OC)cc2)N(C)C(=O)C2CCCN2C(=O)C(CC(C)C)NC(=O)C(C)C(=O)C(C(C)C)OC(=O)C[C@H]1O (stereo partly drawn)
T/C (dose: 600.0 micrograms/kg/injection, schedule: Q07DX002 (ip), vehicle: distilled water + alcohol): 118 % of control

[Na+]
T/C (dose: 50.0 mg/kg/injection, schedule: Q07DX002 (ip), vehicle: water): 100 % of control
T/C (dose: 100.0 mg/kg/injection, schedule: Q07DX002 (ip), vehicle: water): 57 % of control
T/C (dose: 200.0 mg/kg/injection, schedule: Q07DX002 (ip), vehicle: water): 68 % of control
T/C (dose: 400.0 mg/kg/injection, schedule: Q07DX002 (ip), vehicle: water): 58 % of control
T/C (dose: 800.0 mg/kg/injection, schedule: Q07DX002 (ip), vehicle: water): 63 % of control

C=C1COC(O)(C2OCOC(C3CC(=O)NC(=O)C3)C2O)C1C (stereo not drawn)
T/C (dose: 31.25 micrograms/kg/injection, schedule: Q07DX002 (ip), vehicle: water): 119 % of control

Cc1c(N)nc([C@H](CC(N)=O)NC[C@H](N)C(N)=O)nc1C(=O)N[C@H](C(=O)N[C@H](C)[C@@H](O)[C@H](C)C(=O)N[C@H](C(=O)NCCc1nc(-c2nc(C(=O)NCCC[S+](C)C)cs2)cs1)[C@@H](C)O)C(OC1OC(CO)C(O)C(O)C1OC1OC(CO)C(O)C(OC(N)=O)C1O)c1cnc[nH]1 (stereo partly drawn)
T/C (dose: 16.0 mg/kg/injection, schedule: Q07DX002 (ip), vehicle: saline): 26 % of control
T/C (dose: 32.0 mg/kg/injection, schedule: Q07DX002 (ip), vehicle: saline): 14 % of control
T/C (dose: 64.0 mg/kg/injection, schedule: Q07DX002 (ip), vehicle: saline): 35 % of control
T/C (dose: 128.0 mg/kg/injection, schedule: Q07DX002 (ip), vehicle: saline): 9 % of control

CSCS(=O)C[C@H](CO)NC(=O)/C=C/c1c(C)[nH]c(=O)[nH]c1=O (stereo partly drawn)
T/C (dose: 2.0 mg/kg/injection, schedule: Q07DX002 (ip), vehicle: saline): 74 % of control
T/C [13]: 66 % of control

O=c1c(O)c(-c2cc(O)c(O)c(O)c2)oc2cc(O)cc(O)c12
T/C (dose: 600.0 mg/kg/injection, schedule: Q07DX002 (ip), vehicle: saline with Tween-80): 95 % of control

CC(C)NCC(O)COc1ccc(O)c(O)c1 (stereo not drawn)
T/C [1]: 97 % of control
T/C [2]: 94 % of control

CCCCNc1ccc2nnc(C)n2n1
T/C (dose: 50.0 mg/kg/injection, schedule: Q07DX002 (ip), vehicle: DMSO): 98 % of control
T/C (dose: 200.0 mg/kg/injection, schedule: Q07DX002 (ip), vehicle: DMSO): 114 % of control

Cc1cn(C2CC(F)C(CO)O2)c(=O)[nH]c1=O (stereo not drawn)
T/C (dose: 1800.0 mg/kg/injection, schedule: Q07DX002 (ip), vehicle: saline): 103 % of control

Nc1ccn(C2OC(CO)C(O)C2O)c(=O)n1 (stereo not drawn)
T/C (dose: 300.0 mg/kg/injection, schedule: Q07DX002 (ip), vehicle: saline): 70 % of control
T/C (dose: 600.0 mg/kg/injection, schedule: Q07DX002 (ip), vehicle: saline): 90 % of control
T/C (dose: 1200.0 mg/kg/injection, schedule: Q07DX002 (ip), vehicle: saline): 56 % of control
T/C (dose: 2400.0 mg/kg/injection, schedule: Q07DX002 (ip), vehicle: saline): 64 % of control

Cc1cc(NS(=O)(=O)c2ccc(N=Nc3cc(N=Nc4ccc(S(=O)(=O)Nc5cc(C)nc(C)n5)cc4)c4c(NC(=O)C(Cl)Cl)cccc4c3OC(=O)C(Cl)Cl)cc2)nc(C)n1 (tested in a mixture with another compound)
T/C (dose: 25.0 mg/kg/injection, schedule: Q07DX002 (ip), vehicle: suspension in saline): 111 % of control
T/C (dose: 400.0 mg/kg/injection, schedule: Q07DX002 (ip), vehicle: suspension in saline): 114 % of control

C=C(Cl)C(=NC(C)(C)C)Nc1ccccc1C
T/C [6]: 88 % of control

O=C1SC(c2ccccc2)=S=C1c1ccccc1
T/C [9]: 152 % of control
T/C [10]: 114 % of control
T/C [11]: 104 % of control
T/C (dose: 400.0 mg/kg/injection, schedule: Q07DX002 (ip), vehicle: saline with Tween-80): 120 % of control
T/C (dose: 800.0 mg/kg/injection, schedule: Q07DX002 (ip), vehicle: saline with Tween-80): 104 % of control

CC(=O)CC(=O)CCC(=O)O
T/C [1]: 87 % of control
T/C [2]: 88 % of control
T/C [3]: 86 % of control
T/C [4]: 89 % of control

CCC(NC(N)=O)C(CC)NC(N)=O (stereo not drawn)
T/C (dose: 25.0 mg/kg/injection, schedule: Q07DX002 (ip), vehicle: saline with Tween-80): 83 % of control
T/C [9]: 88 % of control
T/C [10]: 81 % of control

Cc1ccc(NCCN(C)C)c2c(=O)c3cc(O)ccc3sc12
T/C (dose: 25.0 mg/kg/injection, schedule: Q07DX002 (ip), vehicle: Klucel (hydroxypropylcellulose) (HPC)): 86 % of control
T/C [5]: 90 % of control and 210 % of control
T/C [6]: 67 % of control
T/C [8]: 48 % of control
